# According to PubChem BioAssay AID2060614 (Molecular Pharmacology Branch, DTP, NCI, 2025):
# pIC50: −log10 of the molar value.
# Test system: 598228-144-R-J1-PDC complex spheroids, viability
# Assay: Anticancer human tumor 598228-144-R-J1-PDC patient-derived serous endometrial adenocarcinoma cell line growth inhibition [CLK]
# Settings: for pIC50: curve of first compound; for viability, T/C: stronger effect = lower value
# Summary of the method: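 Patient-derived tumor cells grown as complex spheroids with HUVEC endothelial cells and mesenchymal stem cells, treated with drug combinations. Concentrations descend in half-log steps from near clinical Cmax, or from 10 microM if Cmax unknown.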
# [1] = second compound 0.0316 µM, first compound 0.0316 µM
# [2] = second compound 0.0316 µM, first compound 0.1 µM
# [3] = second compound 0.1 µM, first compound 0.0316 µM
# [4] = second compound 0.1 µM, first compound 0.1 µM
# [5] = second compound 0.316 µM, first compound 0.0316 µM
# [6] = second compound 0.316 µM, first compound 0.1 µM
# [7] = second compound 1 µM, first compound 0.0316 µM
# [8] = second compound 1 µM, first compound 0.1 µM
# [9] = second compound 3.16 µM, first compound 0.0316 µM
# [10] = second compound 3.16 µM, first compound 0.1 µM
# [11] = second compound 10 µM, first compound 0.0316 µM
# [12] = second compound 10 µM, first compound 0.1 µM
# [13] = second compound 0.0316 µM, first compound 0.316 µM
# [14] = second compound 0.0316 µM, first compound 1 µM
# [15] = second compound 0.0316 µM, first compound 3.16 µM
# [16] = second compound 0.0316 µM, first compound 10 µM
# [17] = second compound 0.1 µM, first compound 0.316 µM
# [18] = second compound 0.1 µM, first compound 1 µM
# [19] = second compound 0.1 µM, first compound 3.16 µM
# [20] = second compound 0.1 µM, first compound 10 µM
# [21] = second compound 0.316 µM, first compound 0.316 µM
# [22] = second compound 0.316 µM, first compound 1 µM
# [23] = second compound 0.316 µM, first compound 3.16 µM
# [24] = second compound 0.316 µM, first compound 10 µM
# [25] = second compound 1 µM, first compound 0.316 µM
# [26] = second compound 1 µM, first compound 1 µM
# [27] = second compound 1 µM, first compound 3.16 µM
# [28] = second compound 1 µM, first compound 10 µM
# [29] = second compound 3.16 µM, first compound 0.316 µM
# [30] = second compound 3.16 µM, first compound 1 µM
# [31] = second compound 3.16 µM, first compound 3.16 µM
# [32] = second compound 3.16 µM, first compound 10 µM
# [33] = second compound 10 µM, first compound 0.316 µM
# [34] = second compound 10 µM, first compound 1 µM
# [35] = second compound 10 µM, first compound 3.16 µM
# [36] = second compound 10 µM, first compound 10 µM
# 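Note: spheroids exposed to compounds for seven days before readout.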
# 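Throughout, for viability, T/C: 100% = DMSO vehicle control wells.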
compound,measurement,setting,value
CC(C)CC(NC(=O)C(Cc1ccccc1)NC(=O)c1cnccn1)B(O)O (stereo not drawn) + CN1CCN(c2cc(C(=O)Nc3cc4cc(-c5cnn(C)c5)ccc4cn3)ccn2)CC1,pIC50,second compound 0.0316 µM,8.39
same,pIC50,second compound 0.1 µM,8.60
same,pIC50,second compound 0.316 µM,> 9.02
same,pIC50,second compound 1 µM,> 9.02
same,pIC50,second compound 3.16 µM,> 9.02
same,pIC50,second compound 10 µM,> 9.02
same,"viability, T/C","second compound 0.0316 µM, first compound 0.000949 µM",124%
same,"viability, T/C","second compound 0.0316 µM, first compound 0.003 µM",68.6%
same,"viability, T/C","second compound 0.0316 µM, first compound 0.00949 µM",0.89%
same,"viability, T/C","second compound 0.0316 µM, first compound 0.03 µM",0.39%
same,"viability, T/C","second compound 0.0316 µM, first compound 0.0949 µM",0.34%
same,"viability, T/C","second compound 0.0316 µM, first compound 0.3 µM",0.29%
same,"viability, T/C","second compound 0.1 µM, first compound 0.000949 µM",137%
same,"viability, T/C","second compound 0.1 µM, first compound 0.003 µM",35.3%
same,"viability, T/C","second compound 0.1 µM, first compound 0.00949 µM",0.57%
same,"viability, T/C","second compound 0.1 µM, first compound 0.03 µM",0.37%
same,"viability, T/C","second compound 0.1 µM, first compound 0.0949 µM",0.35%
same,"viability, T/C","second compound 0.1 µM, first compound 0.3 µM",2.83%
same,"viability, T/C","second compound 0.316 µM, first compound 0.000949 µM",19.9%
same,"viability, T/C","second compound 0.316 µM, first compound 0.003 µM",2.9%
same,"viability, T/C","second compound 0.316 µM, first compound 0.00949 µM",0.32%
same,"viability, T/C","second compound 0.316 µM, first compound 0.03 µM",0.26%
same,"viability, T/C","second compound 0.316 µM, first compound 0.0949 µM",0.88%
same,"viability, T/C","second compound 0.316 µM, first compound 0.3 µM",6.75%
same,"viability, T/C","second compound 1 µM, first compound 0.000949 µM",0.79%
same,"viability, T/C","second compound 1 µM, first compound 0.003 µM",0.61%
same,"viability, T/C","second compound 1 µM, first compound 0.00949 µM",0.36%
same,"viability, T/C","second compound 1 µM, first compound 0.03 µM",0.23%
same,"viability, T/C","second compound 1 µM, first compound 0.0949 µM",1.86%
same,"viability, T/C","second compound 1 µM, first compound 0.3 µM",4.83%
same,"viability, T/C","second compound 3.16 µM, first compound 0.000949 µM",1.18%
same,"viability, T/C","second compound 3.16 µM, first compound 0.003 µM",1.87%
same,"viability, T/C","second compound 3.16 µM, first compound 0.00949 µM",0.3%
same,"viability, T/C","second compound 3.16 µM, first compound 0.03 µM",0.21%
same,"viability, T/C","second compound 3.16 µM, first compound 0.0949 µM",1.26%
same,"viability, T/C","second compound 3.16 µM, first compound 0.3 µM",2.5%
same,"viability, T/C","second compound 10 µM, first compound 0.000949 µM",0.91%
same,"viability, T/C","second compound 10 µM, first compound 0.003 µM",2.49%
same,"viability, T/C","second compound 10 µM, first compound 0.00949 µM",0.22%
same,"viability, T/C","second compound 10 µM, first compound 0.03 µM",0.2%
same,"viability, T/C","second compound 10 µM, first compound 0.0949 µM",3.91%
same,"viability, T/C","second compound 10 µM, first compound 0.3 µM",3.86%
Cn1ncnc1[C@H]1c2n[nH]c(=O)c3cc(F)cc(c23)N[C@@H]1c1ccc(F)cc1 + CN1CCN(c2cc(C(=O)Nc3cc4cc(-c5cnn(C)c5)ccc4cn3)ccn2)CC1,pIC50,second compound 0.0316 µM,< 7.00
same,pIC50,second compound 0.1 µM,< 7.00
same,pIC50,second compound 0.316 µM,> 9.50
same,pIC50,second compound 1 µM,> 9.50
same,pIC50,second compound 3.16 µM,> 9.50
same,pIC50,second compound 10 µM,> 9.50
same,"viability, T/C","second compound 0.0316 µM, first compound 0.000316 µM",126%
same,"viability, T/C","second compound 0.0316 µM, first compound 0.001 µM",119%
same,"viability, T/C","second compound 0.0316 µM, first compound 0.00316 µM",107%
same,"viability, T/C","second compound 0.0316 µM, first compound 0.01 µM",113%
same,"viability, T/C",[1],107%
same,"viability, T/C",[2],122%
same,"viability, T/C","second compound 0.1 µM, first compound 0.000316 µM",117%
same,"viability, T/C","second compound 0.1 µM, first compound 0.001 µM",125%
same,"viability, T/C","second compound 0.1 µM, first compound 0.00316 µM",114%
same,"viability, T/C","second compound 0.1 µM, first compound 0.01 µM",116%
same,"viability, T/C",[3],133%
same,"viability, T/C",[4],129%
same,"viability, T/C","second compound 0.316 µM, first compound 0.000316 µM",19.3%
same,"viability, T/C","second compound 0.316 µM, first compound 0.001 µM",19.1%
same,"viability, T/C","second compound 0.316 µM, first compound 0.00316 µM",16.3%
same,"viability, T/C","second compound 0.316 µM, first compound 0.01 µM",19%
same,"viability, T/C",[5],18.8%
same,"viability, T/C",[6],16.7%
same,"viability, T/C","second compound 1 µM, first compound 0.000316 µM",1.63%
same,"viability, T/C","second compound 1 µM, first compound 0.001 µM",1.39%
same,"viability, T/C","second compound 1 µM, first compound 0.00316 µM",1.72%
same,"viability, T/C","second compound 1 µM, first compound 0.01 µM",1.32%
same,"viability, T/C",[7],3.04%
same,"viability, T/C",[8],3.99%
same,"viability, T/C","second compound 3.16 µM, first compound 0.000316 µM",1.68%
same,"viability, T/C","second compound 3.16 µM, first compound 0.001 µM",3.14%
same,"viability, T/C","second compound 3.16 µM, first compound 0.00316 µM",1.85%
same,"viability, T/C","second compound 3.16 µM, first compound 0.01 µM",2.2%
same,"viability, T/C",[9],1.94%
same,"viability, T/C",[10],6.61%
same,"viability, T/C","second compound 10 µM, first compound 0.000316 µM",1.05%
same,"viability, T/C","second compound 10 µM, first compound 0.001 µM",2.11%
same,"viability, T/C","second compound 10 µM, first compound 0.00316 µM",1.83%
same,"viability, T/C","second compound 10 µM, first compound 0.01 µM",0.71%
same,"viability, T/C",[11],3.42%
same,"viability, T/C",[12],4.51%
Nc1ccn(C2OC(CO)C(O)C2(F)F)c(=O)n1 (stereo not drawn) + CN1CCN(c2cc(C(=O)Nc3cc4cc(-c5cnn(C)c5)ccc4cn3)ccn2)CC1,pIC50,second compound 0.0316 µM,> 7.50
same,pIC50,second compound 0.1 µM,> 7.50
same,pIC50,second compound 0.316 µM,> 7.50
same,pIC50,second compound 1 µM,> 7.50
same,pIC50,second compound 3.16 µM,> 7.50
same,pIC50,second compound 10 µM,> 7.50
same,"viability, T/C",[1],42.6%
same,"viability, T/C",[2],23.5%
same,"viability, T/C",[13],24.3%
same,"viability, T/C",[14],21.2%
same,"viability, T/C",[15],23.4%
same,"viability, T/C",[16],28.3%
same,"viability, T/C",[3],46.5%
same,"viability, T/C",[4],26.8%
same,"viability, T/C",[17],25.4%
same,"viability, T/C",[18],28.5%
same,"viability, T/C",[19],28.5%
same,"viability, T/C",[20],29.5%
same,"viability, T/C",[5],18%
same,"viability, T/C",[6],16.9%
same,"viability, T/C",[21],14%
same,"viability, T/C",[22],15.4%
same,"viability, T/C",[23],17%
same,"viability, T/C",[24],16.9%
same,"viability, T/C",[7],3.9%
same,"viability, T/C",[8],1.1%
same,"viability, T/C",[25],2.41%
same,"viability, T/C",[26],1.35%
same,"viability, T/C",[27],2.84%
same,"viability, T/C",[28],4.14%
same,"viability, T/C",[9],1.84%
same,"viability, T/C",[10],4.4%
same,"viability, T/C",[29],1.37%
same,"viability, T/C",[30],1.5%
same,"viability, T/C",[31],5.71%
same,"viability, T/C",[32],5.03%
same,"viability, T/C",[11],0.74%
same,"viability, T/C",[12],0.77%
same,"viability, T/C",[33],2.69%
same,"viability, T/C",[34],0.88%
same,"viability, T/C",[35],5.39%
same,"viability, T/C",[36],1.96%
O=C(c1cc(Cc2n[nH]c(=O)c3ccccc23)ccc1F)N1CCN(C(=O)C2CC2)CC1 + CN1CCN(c2cc(C(=O)Nc3cc4cc(-c5cnn(C)c5)ccc4cn3)ccn2)CC1,pIC50,second compound 0.0316 µM,< 5.00
same,pIC50,second compound 0.1 µM,< 5.00
same,pIC50,second compound 0.316 µM,> 7.50
same,pIC50,second compound 1 µM,> 7.50
same,pIC50,second compound 3.16 µM,> 7.50
same,pIC50,second compound 10 µM,> 7.50
same,"viability, T/C",[1],123%
same,"viability, T/C",[2],120%
same,"viability, T/C",[13],114%
same,"viability, T/C",[14],118%
same,"viability, T/C",[15],116%
same,"viability, T/C",[16],103%
same,"viability, T/C",[3],130%
same,"viability, T/C",[4],119%
same,"viability, T/C",[17],107%
same,"viability, T/C",[18],126%
same,"viability, T/C",[19],125%
same,"viability, T/C",[20],131%
same,"viability, T/C",[5],16.7%
same,"viability, T/C",[6],17.2%
same,"viability, T/C",[21],18.8%
same,"viability, T/C",[22],14.9%
same,"viability, T/C",[23],13.7%
same,"viability, T/C",[24],14.9%
same,"viability, T/C",[7],1.51%
same,"viability, T/C",[8],1.3%
same,"viability, T/C",[25],2.76%
same,"viability, T/C",[26],1.57%
same,"viability, T/C",[27],2.8%
same,"viability, T/C",[28],3.04%
same,"viability, T/C",[9],1.72%
same,"viability, T/C",[10],1.59%
same,"viability, T/C",[29],1.74%
same,"viability, T/C",[30],2.04%
same,"viability, T/C",[31],2.75%
same,"viability, T/C",[32],4.75%
same,"viability, T/C",[11],0.94%
same,"viability, T/C",[12],0.9%
same,"viability, T/C",[33],1.84%
same,"viability, T/C",[34],1.05%
same,"viability, T/C",[35],1.89%
same,"viability, T/C",[36],3.42%
